Target: T1, EtoX (TRAP transporter, periplasmic ethanolamine binding protein, MED193_10041)
T1 construct: full-length codon optimized, C-terminal His-tag
Test: microscale thermophoresis with purified recombinant EtoX
Design: species or system Phaeobacter sp. MED193

NCCO [ethanolamine] showed a Kd of 7.88 ± 1.88 µM.

— article PMC10132767, “Bacterial catabolism of membrane phospholipids links marine biogeochemical cycles” (Science Advances, 2023)
